ChEMBL document CHEMBL2440076, “New triarylpyrazoles as broad-spectrum anticancer agents: design, synthesis, and biological evaluation” (Eur J Med Chem, 2013)

What was measured:
[1] = tested on: U-251; assay: Growth inhibition of human U251 cells assessed as cell growth at 10 uM after 48 hrs by sulforhodamine B assay; type: functional; details: U-251, 48 h, read-out: Activity
[2] = tested on: TK-10; assay: Growth inhibition of human TK10 cells assessed as cell growth at 10 uM after 48 hrs by sulforhodamine B assay; type: functional; details: TK-10, 48 h, read-out: Activity
[3] = tested on: MDA-MB-435; assay: Growth inhibition of human MDA-MB-435 cells after 48 hrs by sulforhodamine B assay; type: functional, cell-based; details: MDA-MB-435, 48 h; for CC50: read-out: LC50 (the source's name)
[4] = tested on: RXF 393; assay: Growth inhibition of human RXF393 cells after 48 hrs by sulforhodamine B assay; type: functional; details: RXF 393, 48 h
[5] = tested on: KM12; assay: Growth inhibition of human KM12 cells assessed as cell growth at 10 uM after 48 hrs by sulforhodamine B assay; type: functional; details: KM12, 48 h, read-out: Activity
[6] = tested on: A549; assay: Growth inhibition of human A549/ATCC cells assessed as cell growth at 10 uM after 48 hrs by sulforhodamine B assay; type: functional; details: A549, 48 h, read-out: Activity
[7] = tested on: SN12C; assay: Growth inhibition of human SN12C cells assessed as cell growth at 10 uM after 48 hrs by sulforhodamine B assay; type: functional; details: read-out: Activity
[8] = tested on: BT-549; assay: Growth inhibition of human BT549 cells after 48 hrs by sulforhodamine B assay; type: functional; details: BT-549, 48 h
[9] = tested on: BT-549; assay: Growth inhibition of human BT549 cells assessed as cell growth at 10 uM after 48 hrs by sulforhodamine B assay; type: functional; details: BT-549, 48 h, read-out: Activity
[10] = tested on: K562; assay: Growth inhibition of human K562 cells after 48 hrs by sulforhodamine B assay; type: functional; details: K562, 48 h; for CC50: read-out: LC50 (the source's name)
[11] = tested on: OVCAR-4; assay: Growth inhibition of human OVCAR4 cells assessed as cell growth at 10 uM after 48 hrs by sulforhodamine B assay; type: functional; details: OVCAR-4, 48 h, read-out: Activity
[12] = tested on: A498; assay: Growth inhibition of human A498 cells assessed as cell growth at 10 uM after 48 hrs by sulforhodamine B assay; type: functional; details: A498, 48 h, read-out: Activity
[13] = tested on: SK-OV-3; assay: Growth inhibition of human SKOV3 cells assessed as cell growth at 10 uM after 48 hrs by sulforhodamine B assay; type: functional; details: SK-OV-3, 48 h, read-out: Activity
[14] = tested on: MOLT-4; assay: Growth inhibition of human MOLT4 cells assessed as cell growth at 10 uM after 48 hrs by sulforhodamine B assay; type: functional; details: MOLT-4, 48 h, read-out: Activity
[15] = tested on: T47D; assay: Growth inhibition of human T47D cells after 48 hrs by sulforhodamine B assay; type: functional; details: for CC50: read-out: LC50 (the source's name)
[16] = tested on: NCI-H23; assay: Growth inhibition of human NCI-H23 cells after 48 hrs by sulforhodamine B assay; type: functional; details: NCI-H23, 48 h
[17] = tested on: SK-MEL-2; assay: Growth inhibition of human SK-MEL-2 cells after 48 hrs by sulforhodamine B assay; type: functional; details: SK-MEL-2, 48 h
[18] = tested on: RPMI-8226; assay: Growth inhibition of human RPMI8226 cells assessed as cell growth at 10 uM after 48 hrs by sulforhodamine B assay; type: functional; details: RPMI-8226, 48 h, read-out: Activity
[19] = Growth inhibition of human Hs 578T cells assessed as cell growth at 10 uM after 48 hrs by sulforhodamine B assay; type: functional; details: read-out: Activity
[20] = tested on: HT-29; assay: Growth inhibition of human HT-29 cells after 48 hrs by sulforhodamine B assay; type: functional; details: HT-29, 48 h; for CC50: read-out: LC50 (the source's name)
[21] = tested on: SK-MEL-5; assay: Growth inhibition of human SK-MEL-5 cells assessed as cell growth at 10 uM after 48 hrs by sulforhodamine B assay; type: functional; details: SK-MEL-5, 48 h, read-out: Activity
[22] = tested on: NCI-H460; assay: Growth inhibition of human NCI-H460 cells assessed as cell growth at 10 uM after 48 hrs by sulforhodamine B assay; type: functional; details: NCI-H460, 48 h, read-out: Activity
[23] = tested on: NCI-H522; assay: Growth inhibition of human NCI-H522 cells assessed as cell growth at 10 uM after 48 hrs by sulforhodamine B assay; type: functional; details: NCI-H522, 48 h, read-out: Activity
[24] = Growth inhibition of human HCC2998 cells assessed as cell growth at 10 uM after 48 hrs by sulforhodamine B assay; type: functional; details: HCC 2998, 48 h, read-out: Activity
[25] = tested on: PC-3; assay: Growth inhibition of human PC3 cells assessed as cell growth at 10 uM after 48 hrs by sulforhodamine B assay; type: functional; details: PC-3, 48 h, read-out: Activity
[26] = tested on: MDA-MB-468; assay: Growth inhibition of human MDA-MB-468 cells assessed as cell growth at 10 uM after 48 hrs by sulforhodamine B assay; type: functional; details: MDA-MB-468, 48 h, read-out: Activity
[27] = tested on: COLO 205; assay: Growth inhibition of human COLO205 cells after 48 hrs by sulforhodamine B assay; type: functional; details: COLO 205, 48 h
[28] = tested on: T47D; assay: Growth inhibition of human T47D cells assessed as cell growth at 10 uM after 48 hrs by sulforhodamine B assay; type: functional; details: read-out: Activity
[29] = tested on: CAKI-1; assay: Growth inhibition of human CAKI-1 cells after 48 hrs by sulforhodamine B assay; type: functional; details: CAKI-1, 48 h; for CC50: read-out: LC50 (the source's name)
[30] = tested on: HOP-62; assay: Growth inhibition of human HOP62 cells assessed as cell growth at 10 uM after 48 hrs by sulforhodamine B assay; type: functional; details: HOP-62, 48 h, read-out: Activity
[31] = tested on: SNB-19; assay: Growth inhibition of human SNB19 cells after 48 hrs by sulforhodamine B assay; type: functional; details: SNB-19, 48 h
[32] = tested on: MDA-MB-231; assay: Growth inhibition of human MDA-MB-231 cells after 48 hrs by sulforhodamine B assay; type: functional; details: MDA-MB-231, 48 h
[33] = tested on: SK-MEL-28; assay: Growth inhibition of human SK-MEL-28 cells after 48 hrs by sulforhodamine B assay; type: functional; details: SK-MEL-28, 48 h
[34] = tested on: HCT-15; assay: Growth inhibition of human HCT15 cells assessed as cell growth at 10 uM after 48 hrs by sulforhodamine B assay; type: functional; details: HCT-15, 48 h, read-out: Activity

With `O=C(Nc1cccc(-n2cc(-c3ccncc3)c(-c3ccc(Cl)c(O)c3)n2)c1)Nc1cc(C(F)(F)F)cc(C(F)(F)F)c1` the growth at 10 µM [1] was -83.8%, the growth at 10 µM [2] was -24.6% and the GI50 [3] was 910 nM. For the same molecule, the IC50 [3] was 910 nM, the TGI [3] was 2590 nM and the CC50 [3] was 15600 nM. The GI50 [4] was 937 nM, the LC50 (concentration killing 50% of cells) [4] was 10700 nM and the TGI [4] was 2490 nM. The growth at 10 µM [5] was -50.3%, the growth at 10 µM [6] was -32.5% and the growth at 10 µM [7] was -36.1%. For the same molecule, the GI50 [8] was 1090 nM, the LC50 (50% lethal concentration) [8] was 4110 nM and the TGI [8] was 2120 nM. The growth at 10 µM [9] was -36%, the GI50 [10] was 433 nM and the TGI [10] was 3930 nM. For the same molecule, the CC50 [10] was greater than 50000 nM, the growth at 10 µM [11] was 0.87% and the growth at 10 µM [12] was -18.6%. The growth at 10 µM [13] was -24.4%, the growth at 10 µM [14] was -18.5% and the GI50 [15] was 1820 nM. For the same molecule, the TGI [15] was 14000 nM, the CC50 [15] was greater than 50000 nM and the GI50 [16] was 1020 nM. It also gave an LC50 [16] of 18200 nM, a TGI [16] of 3270 nM and a GI50 [17] of 1250 nM. It also gave an LC50 (50% lethal concentration) [17] of 14100 nM, a TGI [17] of 3030 nM and a growth at 10 µM [18] of -10.9%. For the same molecule, the growth at 10 µM [19] was -26%, the GI50 [20] was 746 nM and the TGI [20] was 1870 nM. It also gave a CC50 [20] of 4670 nM, a growth at 10 µM [21] of -94.7% and a growth at 10 µM [22] of -55.7%. For the same molecule, the growth at 10 µM [23] was -50.1%, the growth at 10 µM [24] was -56.9% and the growth at 10 µM [25] was -32.4%. For the same molecule, the growth at 10 µM [26] was -23.9%, the GI50 [27] was 853 nM and the LC50 (concentration killing 50% of cells) [27] was 2920 nM. The TGI [27] was 1580 nM, the growth at 10 µM [28] was 12.1% and the GI50 [29] was 1010 nM. The TGI [29] was 4420 nM, the CC50 [29] was 26500 nM and the growth at 10 µM [30] was -86.1%. The GI50 [31] was 983 nM, the LC50 (concentration killing 50% of cells) [31] was greater than 50000 nM and the TGI [31] was 8960 nM. The GI50 [32] was 739 nM, the LC50 [32] was 3720 nM and the TGI [32] was 1660 nM. It also gave a GI50 [33] of 796 nM, an LC50 [33] of 3090 nM and a TGI [33] of 1570 nM. It also gave a growth at 10 µM [34] of -7.23%.
With `COc1cc(-c2nn(-c3cccc(NC(=O)c4ccc(N5CCOCC5)c(C(F)(F)F)c4)c3)cc2-c2ccncc2)ccc1Cl` the growth at 10 µM [1] was 2.49%, the growth at 10 µM [2] was 17.8% and the GI50 [3] was 26.6 nM. The IC50 [3] was 27 nM, the TGI [3] was 91.4 nM and the CC50 [3] was greater than 100000 nM. For the same molecule, the GI50 [4] was 199 nM, the LC50 (concentration killing 50% of cells) [4] was greater than 100000 nM and the TGI [4] was 674 nM. It also gave a growth at 10 µM [5] of 5.64%, a growth at 10 µM [6] of 3.58% and a growth at 10 µM [7] of 31%. It also gave a GI50 [8] of 1410 nM, an LC50 (50% lethal concentration) [8] greater than 100000 nM and a TGI [8] greater than 100000 nM. For the same molecule, the growth at 10 µM [9] was 14.3%, the GI50 [10] was 49.9 nM and the TGI [10] was greater than 100000 nM. It also gave a CC50 [10] greater than 100000 nM, a growth at 10 µM [11] of 52.6% and a growth at 10 µM [12] of -29.7%. For the same molecule, the growth at 10 µM [13] was 1.88%, the growth at 10 µM [14] was 4.07% and the GI50 [15] was 686 nM. It also gave a TGI [15] greater than 100000 nM, a CC50 [15] greater than 100000 nM and a GI50 [16] of 870 nM. For the same molecule, the LC50 [16] was greater than 100000 nM, the TGI [16] was 20700 nM and the GI50 [17] was 291 nM. For the same molecule, the LC50 (50% lethal concentration) [17] was greater than 100000 nM, the TGI [17] was 8240 nM and the growth at 10 µM [18] was 8.3%. The growth at 10 µM [19] was -13.6%, the GI50 [20] was 380 nM and the TGI [20] was 1520 nM. For the same molecule, the CC50 [20] was greater than 100000 nM, the growth at 10 µM [21] was 3.41% and the growth at 10 µM [22] was 5.02%. The growth at 10 µM [23] was 0.2%, the growth at 10 µM [24] was 8.82% and the growth at 10 µM [25] was 8.17%. The growth at 10 µM [26] was -37.8%, the GI50 [27] was 342 nM and the LC50 (concentration killing 50% of cells) [27] was 4150 nM. It also gave a TGI [27] of 1150 nM, a growth at 10 µM [28] of 27.5% and a GI50 [29] of 360 nM. For the same molecule, the TGI [29] was 8120 nM, the CC50 [29] was greater than 100000 nM and the growth at 10 µM [30] was 29.4%. It also gave a GI50 [31] of 520 nM, an LC50 (concentration killing 50% of cells) [31] greater than 100000 nM and a TGI [31] greater than 100000 nM. For the same molecule, the GI50 [32] was 299 nM, the LC50 [32] was greater than 100000 nM and the TGI [32] was 2390 nM. For the same molecule, the GI50 [33] was 1390 nM, the LC50 [33] was greater than 100000 nM and the TGI [33] was greater than 100000 nM. For the same molecule, the growth at 10 µM [34] was 16.7%.
